In brackets after ≈: the same amount, converted by molar mass.
Experiments:
[1] = DPPH radical scavenging assay; details: 30 min in the dark, absorbance 517 nm; mean ± SD, triplicates
Procedure: In-vitro antioxidant potential of the different extracts of B. pacumbis was assessed by 1,1-diphenyl 1–2-picryl-hydrazyl (DPPH) assay accordingly with Jha et al.. One milliliter of plant extract of different concentrations was added in 3 mL of the DPPH solution ([…]) and incubated for 30 min in the dark. Absorbance was measured at the wavelength (λ) = 517 nm in a UV-visible spectrophotometer (UV-1800, SHIMADZU). Gallic acid and methanolic DPPH were used as reference and positive control respectively.

[2] = ABTS radical scavenging assay; details: 10 min in the dark, absorbance 720 nm; mean ± SD, triplicates
Procedure: In-vitro 2, 2′-azino-bis (3-ethylbenzothiazoline-6-sulphonic acid) (ABTS) scavenging assay was performed as by Liyanaarachchi et al.. An aliquot of 1 mL of plant extract of varying concentrations was mixed with 3 mL of ABTS working solution and incubated for 10 min in the dark and the decrease in absorbance was recorded at λ = 720 nm in a UV-visible spectrophotometer. Gallic acid and 50% methanol were used as reference and positive control respectively.

With O=C(O)c1cc(O)c(O)c(O)c1 [Gallic Acid] the “IC50 Value DPPH” value [1] was 5.12 ± 0.12 µg/mL (≈ 30.1 µM) and the “IC50 Value ABTS” value [2] was 1.96 ± 0.05 µg/mL (≈ 11.5 µM).
